Laboratory results reported in patent EP1081144A2, “Process for making 5-lipoxygenase inhibitors having varied heterocyclic ring systems” (Pfizer Products Inc., priority 1999, dated 2001).
≈ marks a conversion by molar mass, not a printed value.

Assay: Solubility of the reaction product in acetic acid and in acetic acid/water
Type: physicochemical
Details: organic solvent or mixture
Description: The reaction mixture was cooled to 22°C and granulated for 1 hour. The resulting slurry was then vacuum filtered and the filter cake was washed twice with water (100 ml). The filter cake (75 g) was placed in a 50°C vacuum drier with a nitrogen bleed, after which 23.04 g of solid product were obtained for a yield of 74.0%.

Work on `NC(=O)C1(c2cccc(Sc3ccc(F)cc3)c2)CCOCC1` [Example 3, tetrahydro-4-[3-(4-fluorophenyl)thio]phenyl-2H-pyran-4-carboxamide] yielded a solubility (in a 2:1 mixture of acetic acid and water) of about 4.5 mg/mL (≈ 13.6 mM) and a solubility (in acetic acid at room temperature) of about 62 mg/mL (≈ 187 mM).
